Measurements reported in ChEMBL document CHEMBL1201862, “PubChem BioAssay data set” (2004).
Active and inactive are the calls of the source.

Columns and labels:
[1] = target: T1, Adenosylmethionine-8-amino-7-oxononanoate aminotransferase (Mycobacterium tuberculosis, UniProt P9WQ81); assay: Mycobacterium tuberculosis BioA enzyme inhibitor Measured in Biochemical System Using Plate Reader - 2163-02_Inhibitor_Dose_CherryPick_Activity.; format: functional, Mycobacterium tuberculosis UT205
T1 sequence (P9WQ81 whole entry): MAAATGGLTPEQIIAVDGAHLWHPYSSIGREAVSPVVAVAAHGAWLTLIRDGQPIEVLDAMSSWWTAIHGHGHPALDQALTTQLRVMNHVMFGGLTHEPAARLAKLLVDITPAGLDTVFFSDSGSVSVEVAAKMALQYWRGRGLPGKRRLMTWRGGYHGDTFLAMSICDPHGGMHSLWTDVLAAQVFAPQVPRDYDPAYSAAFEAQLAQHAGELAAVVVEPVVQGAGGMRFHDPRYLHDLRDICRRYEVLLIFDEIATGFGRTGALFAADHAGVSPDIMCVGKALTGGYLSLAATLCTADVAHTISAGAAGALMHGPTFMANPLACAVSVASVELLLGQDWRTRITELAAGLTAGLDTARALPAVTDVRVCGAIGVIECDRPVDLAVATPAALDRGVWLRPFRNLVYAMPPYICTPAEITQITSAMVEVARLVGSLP

[2] = target: T2, Low molecular weight phosphotyrosine protein phosphatase (Homo sapiens, UniProt P24666); format: functional; conditions: read-out: IC50_Mean;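 also: Dose-response confirmation assay measuring inhibition of LMPTP enzyme activity by fluorescence intensity read-out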
T2 sequence (P24666 whole entry): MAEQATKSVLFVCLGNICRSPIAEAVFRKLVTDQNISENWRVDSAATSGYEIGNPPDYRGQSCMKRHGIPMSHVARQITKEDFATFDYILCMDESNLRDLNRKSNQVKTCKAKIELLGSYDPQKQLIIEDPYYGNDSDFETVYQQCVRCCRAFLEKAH

[3] = target: Peroxisome proliferator-activated receptor gamma/Nuclear receptor coactivator 1 (Homo sapiens, UniProt P37231); assay: (§1) TR-FRET dose response biochemical High Throughput Screening assay for agonists of the steroid receptor coactivator 1 (SRC-1) recruitment by the peroxisome proliferator-activated receptor gamma (PPAR gamma): non-selective agonists. [Related pubchem assays (depositor defined):AID1300, AID1808, AID504735, AID631]; format: protein assay
Chain of Peroxisome proliferator-activated receptor gamma/Nuclear receptor coactivator 1 (P37231 whole entry): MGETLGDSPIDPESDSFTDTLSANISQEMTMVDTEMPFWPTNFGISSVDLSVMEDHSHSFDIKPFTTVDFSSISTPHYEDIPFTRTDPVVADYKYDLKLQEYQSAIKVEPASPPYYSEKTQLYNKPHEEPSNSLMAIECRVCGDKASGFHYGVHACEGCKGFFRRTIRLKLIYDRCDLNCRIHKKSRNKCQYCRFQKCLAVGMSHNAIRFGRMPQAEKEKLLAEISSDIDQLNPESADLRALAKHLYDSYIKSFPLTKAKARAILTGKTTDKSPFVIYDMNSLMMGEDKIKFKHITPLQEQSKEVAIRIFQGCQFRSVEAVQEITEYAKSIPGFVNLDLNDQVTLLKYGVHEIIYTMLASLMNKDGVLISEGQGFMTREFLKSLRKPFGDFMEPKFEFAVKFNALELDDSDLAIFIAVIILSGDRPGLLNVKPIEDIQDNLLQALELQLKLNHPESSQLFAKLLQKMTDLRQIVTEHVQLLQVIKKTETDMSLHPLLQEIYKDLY
Chain of Peroxisome proliferator-activated receptor gamma/Nuclear receptor coactivator 1 (Q15788 whole entry, further chain): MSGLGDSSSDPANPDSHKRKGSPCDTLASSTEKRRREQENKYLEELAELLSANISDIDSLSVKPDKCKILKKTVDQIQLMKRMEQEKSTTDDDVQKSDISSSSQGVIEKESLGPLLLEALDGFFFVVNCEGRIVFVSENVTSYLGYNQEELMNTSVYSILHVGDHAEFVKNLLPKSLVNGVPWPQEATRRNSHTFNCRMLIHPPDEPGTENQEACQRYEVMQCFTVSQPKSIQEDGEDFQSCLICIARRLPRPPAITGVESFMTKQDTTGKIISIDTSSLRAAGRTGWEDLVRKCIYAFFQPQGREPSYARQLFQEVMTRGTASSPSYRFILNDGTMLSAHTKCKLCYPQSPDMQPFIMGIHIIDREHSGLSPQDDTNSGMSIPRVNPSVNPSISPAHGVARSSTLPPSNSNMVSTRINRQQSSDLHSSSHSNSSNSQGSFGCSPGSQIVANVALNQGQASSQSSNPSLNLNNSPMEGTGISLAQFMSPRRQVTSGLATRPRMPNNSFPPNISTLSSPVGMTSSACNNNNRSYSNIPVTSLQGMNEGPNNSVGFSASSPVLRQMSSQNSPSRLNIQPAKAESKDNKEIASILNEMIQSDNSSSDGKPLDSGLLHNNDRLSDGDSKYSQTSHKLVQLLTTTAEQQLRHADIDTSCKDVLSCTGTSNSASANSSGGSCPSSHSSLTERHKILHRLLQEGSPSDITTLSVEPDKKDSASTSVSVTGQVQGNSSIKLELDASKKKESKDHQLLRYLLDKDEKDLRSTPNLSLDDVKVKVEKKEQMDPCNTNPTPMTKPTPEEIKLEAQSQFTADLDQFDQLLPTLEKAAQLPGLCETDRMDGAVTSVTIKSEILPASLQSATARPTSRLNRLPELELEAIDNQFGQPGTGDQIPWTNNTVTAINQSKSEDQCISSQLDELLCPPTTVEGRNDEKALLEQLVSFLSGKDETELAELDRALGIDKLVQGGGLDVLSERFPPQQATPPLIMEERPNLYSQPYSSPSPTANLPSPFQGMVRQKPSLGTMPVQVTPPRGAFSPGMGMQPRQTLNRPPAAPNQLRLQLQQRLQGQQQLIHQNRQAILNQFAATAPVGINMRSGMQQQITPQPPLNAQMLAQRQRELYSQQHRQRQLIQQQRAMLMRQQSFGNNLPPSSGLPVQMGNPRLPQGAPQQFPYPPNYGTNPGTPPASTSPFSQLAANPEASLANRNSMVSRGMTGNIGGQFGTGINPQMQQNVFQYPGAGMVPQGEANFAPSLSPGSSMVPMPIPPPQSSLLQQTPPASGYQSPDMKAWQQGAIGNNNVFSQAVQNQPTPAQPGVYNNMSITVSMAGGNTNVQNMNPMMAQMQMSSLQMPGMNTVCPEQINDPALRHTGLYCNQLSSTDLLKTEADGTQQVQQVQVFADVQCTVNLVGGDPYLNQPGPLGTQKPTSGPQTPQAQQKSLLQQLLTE

[4] = target: Peroxisome proliferator-activated receptor gamma/Nuclear receptor coactivator 3 (Homo sapiens, UniProt P37231); assay: as §1, with “3 (SRC-3)” for “1 (SRC-1)”, “assays: 1301 (Confirmation screen.), 1048 (Primary screen.)]” for “assays (depositor defined):AID1300, AID1808, AID504735, AID631]”; format: functional
Chain of Peroxisome proliferator-activated receptor gamma/Nuclear receptor coactivator 3 (P37231 whole entry): as the sequence (P37231 whole entry) above
Chain of Peroxisome proliferator-activated receptor gamma/Nuclear receptor coactivator 3 (Q9Y6Q9 whole entry, further chain): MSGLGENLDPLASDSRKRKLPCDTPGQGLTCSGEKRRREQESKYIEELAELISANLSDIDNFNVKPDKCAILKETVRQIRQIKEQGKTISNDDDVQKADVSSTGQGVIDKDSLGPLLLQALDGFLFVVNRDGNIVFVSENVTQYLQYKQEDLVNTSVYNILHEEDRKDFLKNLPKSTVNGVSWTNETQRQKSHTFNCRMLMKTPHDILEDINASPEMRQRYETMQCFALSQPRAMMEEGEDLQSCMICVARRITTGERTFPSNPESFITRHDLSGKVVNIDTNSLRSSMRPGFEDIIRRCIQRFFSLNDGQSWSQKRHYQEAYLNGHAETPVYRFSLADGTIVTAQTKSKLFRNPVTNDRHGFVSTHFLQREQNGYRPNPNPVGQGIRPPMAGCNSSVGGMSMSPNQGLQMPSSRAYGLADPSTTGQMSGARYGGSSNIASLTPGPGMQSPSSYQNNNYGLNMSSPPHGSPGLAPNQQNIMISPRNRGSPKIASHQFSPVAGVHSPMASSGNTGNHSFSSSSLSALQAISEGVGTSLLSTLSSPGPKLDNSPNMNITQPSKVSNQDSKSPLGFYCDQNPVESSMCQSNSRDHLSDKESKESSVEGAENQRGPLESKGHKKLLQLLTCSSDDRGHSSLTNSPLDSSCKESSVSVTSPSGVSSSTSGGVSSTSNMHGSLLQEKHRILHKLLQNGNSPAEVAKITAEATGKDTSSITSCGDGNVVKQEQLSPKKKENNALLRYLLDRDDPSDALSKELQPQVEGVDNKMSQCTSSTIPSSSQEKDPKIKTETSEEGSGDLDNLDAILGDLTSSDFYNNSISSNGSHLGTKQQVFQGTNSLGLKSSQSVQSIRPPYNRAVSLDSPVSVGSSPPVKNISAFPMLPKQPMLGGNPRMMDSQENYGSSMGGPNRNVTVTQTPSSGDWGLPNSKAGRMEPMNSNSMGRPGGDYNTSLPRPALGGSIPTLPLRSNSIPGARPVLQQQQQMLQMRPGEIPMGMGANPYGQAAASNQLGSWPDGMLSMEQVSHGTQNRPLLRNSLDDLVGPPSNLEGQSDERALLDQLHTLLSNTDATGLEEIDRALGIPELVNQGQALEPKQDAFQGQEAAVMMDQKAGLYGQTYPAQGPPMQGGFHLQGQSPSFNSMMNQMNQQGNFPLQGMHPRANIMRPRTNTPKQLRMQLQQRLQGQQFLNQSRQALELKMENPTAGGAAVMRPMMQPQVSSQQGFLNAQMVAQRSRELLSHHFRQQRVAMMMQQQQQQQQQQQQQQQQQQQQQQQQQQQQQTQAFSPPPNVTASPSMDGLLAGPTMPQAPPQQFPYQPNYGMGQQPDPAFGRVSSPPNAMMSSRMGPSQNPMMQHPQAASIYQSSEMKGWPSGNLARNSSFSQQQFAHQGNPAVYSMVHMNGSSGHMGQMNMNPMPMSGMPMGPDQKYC

[5] = target: Peroxisome proliferator-activated receptor gamma/Nuclear receptor coactivator 2 (Homo sapiens, UniProt P37231); assay: TR-FRET dose response biochemical High Throughput Screening assay for agonists of the steroid receptor coactivator 2 (SRC-2) recruitment by the peroxisome proliferator-activated receptor gamma (PPAR gamma): non-selective agonists. [Related pubchem assays: 1297, 1032 ]; format: functional
[6] = target: 26S proteasome non-ATPase regulatory subunit 14 (Homo sapiens, UniProt O00487); assay: inhibition of proteasome subunit RPN11 – biochemical, fluorescence polarization, uHTS hits, confirmation (AID 602368); format: functional
Chain of 26S proteasome non-ATPase regulatory subunit 14 (O00487 whole entry): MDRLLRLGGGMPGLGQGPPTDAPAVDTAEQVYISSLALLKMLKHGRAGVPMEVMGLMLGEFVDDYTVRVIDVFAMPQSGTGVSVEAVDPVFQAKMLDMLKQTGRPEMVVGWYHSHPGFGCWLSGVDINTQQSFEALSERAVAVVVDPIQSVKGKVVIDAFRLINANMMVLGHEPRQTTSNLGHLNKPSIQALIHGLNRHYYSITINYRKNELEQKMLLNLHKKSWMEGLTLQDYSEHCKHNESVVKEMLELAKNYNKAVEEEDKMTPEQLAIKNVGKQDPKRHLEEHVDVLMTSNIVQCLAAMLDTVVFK

[7] = target: 72 kDa type IV collagenase (Homo sapiens, UniProt P08253); assay: Dose Response validation of uHTS RPN11 inhibitor hits using a MMP-2 Fluorescence assay.; format: functional
Chain of 72 kDa type IV collagenase (P08253 whole entry): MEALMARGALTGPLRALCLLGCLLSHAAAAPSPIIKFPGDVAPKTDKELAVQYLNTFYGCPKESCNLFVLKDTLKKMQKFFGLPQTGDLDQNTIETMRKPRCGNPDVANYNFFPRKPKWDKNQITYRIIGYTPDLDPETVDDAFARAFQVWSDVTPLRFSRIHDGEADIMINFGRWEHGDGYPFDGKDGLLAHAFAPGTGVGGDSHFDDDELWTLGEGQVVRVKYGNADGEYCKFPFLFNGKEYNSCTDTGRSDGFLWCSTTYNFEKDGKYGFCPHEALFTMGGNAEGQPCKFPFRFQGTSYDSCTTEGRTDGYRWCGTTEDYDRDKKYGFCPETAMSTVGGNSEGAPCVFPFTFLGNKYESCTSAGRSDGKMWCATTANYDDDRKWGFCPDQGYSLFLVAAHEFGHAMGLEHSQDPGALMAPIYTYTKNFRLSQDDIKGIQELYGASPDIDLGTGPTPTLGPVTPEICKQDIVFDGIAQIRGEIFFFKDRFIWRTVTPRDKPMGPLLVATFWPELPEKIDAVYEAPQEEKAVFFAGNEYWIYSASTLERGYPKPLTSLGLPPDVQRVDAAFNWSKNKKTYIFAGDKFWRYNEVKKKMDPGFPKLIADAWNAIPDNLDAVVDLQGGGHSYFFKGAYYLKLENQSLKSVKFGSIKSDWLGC

Prothrombin = Prothrombin (Bos taurus, UniProt P00735); assay: thrombin inhibition, dose response, biochemical, fluorescence polarization, uHTS hits (AID 602369); format: functional
[8] = Luminescence Cell-Based Dose Retest to Confirm Inhibitors of Cancer Stem Cells. [Related pubchem assays (depositor defined):AID2717, AID2721]; format: functional; conditions: Homo sapiens
[9] = cytotoxicity in HMLE control line with eGFP shRNA, dose response, counter-screen for HMLE_sh_ECad selective toxicity project, cell-based, HMLE_sh_eGFP, luminescence (AID 463074); format: functional, Homo sapiens;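 also: HMLE human mammary epithelial cells expressing control shRNA against eGFP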
Coagulation factor XII = target: T3, Coagulation factor XII (Homo sapiens, UniProt P00748); format: functional;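 also: activated factor XIIa alpha cleaving a fluorogenic AMC peptide substrate; inhibitor potency from loss of enzyme activity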
T3 sequence (P00748 whole entry): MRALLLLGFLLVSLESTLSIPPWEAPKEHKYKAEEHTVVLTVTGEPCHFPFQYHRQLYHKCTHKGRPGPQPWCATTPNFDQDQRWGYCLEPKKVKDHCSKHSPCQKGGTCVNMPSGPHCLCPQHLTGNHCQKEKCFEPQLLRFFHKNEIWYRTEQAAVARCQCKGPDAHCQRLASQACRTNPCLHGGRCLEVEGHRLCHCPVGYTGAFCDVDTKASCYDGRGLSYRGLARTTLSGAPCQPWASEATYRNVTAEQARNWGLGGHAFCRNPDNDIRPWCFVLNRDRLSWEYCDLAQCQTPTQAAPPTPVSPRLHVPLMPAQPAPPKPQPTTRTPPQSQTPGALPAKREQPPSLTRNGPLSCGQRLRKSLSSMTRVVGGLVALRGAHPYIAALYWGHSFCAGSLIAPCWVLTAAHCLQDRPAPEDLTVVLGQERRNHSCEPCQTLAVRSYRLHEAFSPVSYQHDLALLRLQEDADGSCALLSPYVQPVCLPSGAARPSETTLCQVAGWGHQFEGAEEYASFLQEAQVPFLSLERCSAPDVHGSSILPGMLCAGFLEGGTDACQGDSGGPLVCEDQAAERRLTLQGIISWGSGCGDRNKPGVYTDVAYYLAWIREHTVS

HEK293 [10] = assay: NOD1 signaling inhibitors, primary screen, cell-based, luminescence, uHTS (AID 1578); format: functional; conditions: Homo sapiens
HEK293 [11] = assay: cells; format: functional, cell-based; conditions: Homo sapiens
HEK293 [12] = assay: cells; format: functional, cell-based; conditions: Homo sapiens; remark: listed apart in the source
HEK293 [13] = assay: NOD2 signaling inhibitors in MDP-stimulated cells, cell-based, uHTS, luminescence (AID 2001); format: functional; conditions: Homo sapiens

CC(=O)OCC(=O)[C@@]1(OC(C)=O)[C@@H](C)C[C@H]2[C@@H]3C[C@H](F)C4=CC(=O)C=C[C@]4(C)[C@@]3(F)[C@@H](O)C[C@@]21C [DIFLORASONE DIACETATE]
AC50 [1]: 9.06 µM (active)

CC1=CC2=NC(=O)/C(=C\c3cc(C)n(-c4ccccc4F)c3C)C(=N)N2O1
AC50 [1]: 0.247 µM (active)

COc1ccc(CNc2nc(-c3ccccc3)nc3ccccc23)cc1OC
IC50 [2]: 9.94 µM (active)

Cc1nc2nc(SCC(=O)N3CCC4(CC3)OCCO4)nn2c(C)c1Cc1ccccc1
AC50 [1]: 2.82 µM (active)

c1ccc(-c2nnsc2-c2nc3ccccc3[nH]2)cc1
EC50 [3]: 10.8 µM (inactive) | EC50 [4]: 83.6 µM (not active) | EC50 [5]: 10.3 µM (not active)

O=C(Nc1nc2c(s1)CN(Cc1ccccc1)CC2)c1cccc(S(=O)(=O)N2CCc3ccccc32)c1
EC50 [3]: 10.8 µM (inactive) | EC50 [4]: 28 µM (not active) | EC50 [5]: 14.8 µM (not active)

Cc1cc(C)cc(NC(=O)Cn2nnc(C(=O)NCc3ccc4c(c3)OCO4)c2N)c1
IC50 [6]: 22.9 µM (active) | IC50 [7]: > 100 µM (inactive) | IC50 (Prothrombin): 72.2 µM (active)

CC1=C(C(=O)Nc2ccccc2)C(c2ccco2)C(C#N)=C(SCc2ccccc2)N1 (stereo not drawn)
AC50 [8]: 17.5 µM (active) | AC50 [9]: 28.4 µM (active)

COCc1c(C(=O)OCc2nc(N)nc(Nc3ccccc3C)n2)oc2ccccc12
IC50 (Coagulation factor XII): > 50 µM (inactive)

CC(Sc1nnc(-c2ccc(Cl)cc2Cl)n1Cc1ccccc1)C(=O)Nc1nccs1 (stereo not drawn)
EC50 [3]: 10.6 µM (inactive) | EC50 [4]: 17.6 µM (not active) | EC50 [5]: > 79.4 µM (not active)

CN(c1ccccc1)S(=O)(=O)c1cc(C(=O)Nc2nc3ccccc3[nH]2)ccc1Cl
EC50 (HEK293 [10]): 8.46 µM (active) | IC50 (HEK293 [11]): 5.37 µM (active) | IC50 (HEK293 [12]): > 20 µM (inactive) | IC50 (HEK293 [13]): 6.72 µM (active)
